Laboratory results reported in patent US7332292B2, “Constitutively translocating cell line” (priority 2002, dated 2008).

Tested on: angiotensin II type 1A receptor (AT1AR)
Assay: GRK2-C20 induced ligand-independent arrestinGFP translocation to the AT1AR in U2OS cells (INCell Analyzer)
Format: cell-based
Protocol: U2OS cells stably expressing arrestinGFP and the angiotensin II type 1A receptor (AT1 AR) were transiently transduced with human GRK2-C20 using a baculovirus expression system. A range of GRK2-C20 expression levels was obtained by using varying amounts (serial dilution) of the GRK2-C20 baculovirus.
To test whether the ligand-independent arrestinGFP translocation could be blocked by an antagonist/inverse agonist of the AT1AR, the cells were treated with losartan. Losartan is a nonpeptide molecule that functions as an antagonist/inverse agonist of the AT1AR. Losartan (1 μM final concentration) was added to the cells either immediately after transduction for an 18 hour incubation or 15 hours after transduction for a 3 hour incubation. At the end of the incubation, the cells were analyzed for arrestinGFP translocation using the INCell Analyzer system.

**Q.** How did the “effect on ligand-independent translocation of arrestinGFP to the AT1AR induced by expression of GRK2-C20” value (losartan 1 μM final concentration, 3 hour or 18 hour incubation, U2OS cells stably expressing arrestinGFP and AT1AR) turn out when `CCCCc1nc(Cl)c(CO)n1Cc1ccc(-c2ccccc2-c2nnn[nH]2)cc1` [losartan, Losartan] was run?
**A.** The value was “blocks the ligand-independent translocation of arrestinGFP to the AT1AR”.

**Q.** What about the “inhibition of the ligand-independent translocation of arrestinGFP to the AT1AR” value (losartan 1 μM, 18 hour incubation, lower levels of GRK2-C20 expression (1:64, 1:128, and 1:256 dilutions of baculovirus)) of the same compound?
**A.** The value was “greater than 90%”.
